The target in experiment [1] is Death-associated protein kinase 3 (Homo sapiens) (UniProt O43293). Briefly: Inhibition of ZIPK (unknown origin) at 0.49 uM relative to control.
Experiment [2] concerns the target AMPK alpha2/beta1/gamma1 (Homo sapiens) (UniProt P54646+P54619+Q9Y478). Briefly: Inhibition of AMPK-alpha2/beta1/gamma1 (unknown origin) at 0.49 uM relative to control. Type of experiment: protein-complex assay.
The target in experiment [3] is Cyclin-dependent kinase 1/cyclin B1 (Homo sapiens) (UniProt P06493+P14635). Briefly: Inhibition of CDK1/Cycline B1 (unknown origin) at 0.49 uM relative to control. The format is protein-complex assay.
Experiment [4] concerns the target CDK4/Cyclin D3 (Homo sapiens) (UniProt P11802+P30281). Briefly: Inhibition of CDK4/CyclinD3 (unknown origin) at 0.49 uM relative to control. Type of experiment: protein-complex assay.
Experiment [5] has as its target Cyclin-dependent kinase 9 (Homo sapiens) (UniProt P50750). Briefly: Inhibition of CDK9 (unknown origin) at 0.49 uM relative to control.
In experiment [6] the target is Dual specificity tyrosine-phosphorylation-regulated kinase 2 (Homo sapiens) (UniProt Q92630). Briefly: Inhibition of DYRK2 (unknown origin) at 0.49 uM relative to control.
For experiment [7], the target named is Vascular endothelial growth factor receptor 3 (Homo sapiens) (UniProt P35916). Briefly: Inhibition of FLT4 (unknown origin) at 0.49 uM relative to control.
Experiment [8] concerns the target Insulin-like growth factor 1 receptor (Homo sapiens) (UniProt P08069). Briefly: Inhibition of IGF1R (unknown origin) at 0.49 uM relative to control.
Experiment [9] has as its target Calcium/calmodulin-dependent protein kinase type II subunit alpha (Homo sapiens) (UniProt Q9UQM7). Briefly: Inhibition of CaMK2a (unknown origin) at 0.49 uM relative to control.
Experiment [10] addresses Serine/threonine-protein kinase pim-1 (Homo sapiens) (UniProt P11309). Briefly: Inhibition of PIM1 (unknown origin) at 0.49 uM relative to control.
Experiment [11] deals with Serine/threonine-protein kinase PAK 4 (Homo sapiens) (UniProt O96013). Briefly: Inhibition of PAK4 (unknown origin) at 0.49 uM relative to control.
In experiment [12] the target is ALK tyrosine kinase receptor (Homo sapiens) (UniProt Q9UM73). Briefly: Inhibition of ALK (unknown origin) at 0.49 uM relative to control.
Experiment [13] deals with Tyrosine-protein kinase ABL2 (Homo sapiens) (UniProt P42684). Briefly: Inhibition of Arg (unknown origin) at 0.49 uM relative to control.
Experiment [14] deals with Protein kinase C beta type (Homo sapiens) (UniProt P05771). Briefly: Inhibition of PKC-beta2 (unknown origin) at 0.49 uM relative to control.
Experiment [15] has as its target Ribosomal protein S6 kinase alpha-5 (Homo sapiens) (UniProt O75582). Briefly: Inhibition of MSK1 (unknown origin) at 0.45 uM relative to control.
For experiment [16], the target named is Ribosomal protein S6 kinase alpha-4 (Homo sapiens) (UniProt O75676). Briefly: Inhibition of MSK2 (unknown origin) at 0.45 uM relative to control.
Experiment [17] concerns the target Casein kinase I isoform gamma-2 (Homo sapiens) (UniProt P78368). Briefly: Inhibition of Casein kinase 1g2 (unknown origin) at 0.45 uM relative to control.
For experiment [18], the target named is Casein kinase I isoform alpha (Homo sapiens) (UniProt P48729). Briefly: Inhibition of CSNK1A1 (unknown origin) at 0.45 uM relative to control.
The target in experiment [19] is Ribosomal protein S6 kinase alpha-2 (Homo sapiens) (UniProt Q15349). Briefly: Inhibition of RSK3 (unknown origin) at 0.45 uM relative to control.
In experiment [20] the target is Serine/threonine-protein kinase Nek1 (Homo sapiens) (UniProt Q96PY6). Briefly: Inhibition of NEK1 (unknown origin) at 0.45 uM relative to control.
Experiment [21] addresses Mitogen-activated protein kinase 14 (Homo sapiens) (UniProt Q16539). Briefly: Inhibition of p38a (unknown origin) at 0.45 uM relative to control.
Experiment [22] deals with Misshapen-like kinase 1 (Homo sapiens) (UniProt Q8N4C8). Briefly: Inhibition of MINK (unknown origin) at 0.45 uM relative to control.
Experiment [23] deals with Receptor tyrosine-protein kinase erbB-4 (Homo sapiens) (UniProt Q15303). Briefly: Inhibition of HER4 (unknown origin) at 0.45 uM relative to control.
For experiment [24], the system named is Platelet-derived growth factor receptor alpha (Homo sapiens), P16234 [D842V]. Briefly: Inhibition of PDGFRA D842V mutant (unknown origin) at 0.45 uM relative to control.
Experiment [25] concerns the target PAS domain-containing serine/threonine-protein kinase (Homo sapiens) (UniProt Q96RG2). Briefly: Inhibition of PASK (unknown origin) at 0.45 uM relative to control.
Experiment [26] relates to Tyrosine-protein kinase ABL1 (Homo sapiens), P00519 [H396P]. Briefly: Inhibition of Abl H396P mutant (unknown origin) at 0.45 uM relative to control.
The target in experiment [27] is Discoidin domain-containing receptor 2 (Homo sapiens) (UniProt Q16832). Briefly: Inhibition of DDR2 (unknown origin) at 0.45 uM relative to control.
In experiment [28] the target is T1, cGMP-dependent protein kinase 1 (Homo sapiens) (UniProt Q13976).
T1 sequence (whole entry): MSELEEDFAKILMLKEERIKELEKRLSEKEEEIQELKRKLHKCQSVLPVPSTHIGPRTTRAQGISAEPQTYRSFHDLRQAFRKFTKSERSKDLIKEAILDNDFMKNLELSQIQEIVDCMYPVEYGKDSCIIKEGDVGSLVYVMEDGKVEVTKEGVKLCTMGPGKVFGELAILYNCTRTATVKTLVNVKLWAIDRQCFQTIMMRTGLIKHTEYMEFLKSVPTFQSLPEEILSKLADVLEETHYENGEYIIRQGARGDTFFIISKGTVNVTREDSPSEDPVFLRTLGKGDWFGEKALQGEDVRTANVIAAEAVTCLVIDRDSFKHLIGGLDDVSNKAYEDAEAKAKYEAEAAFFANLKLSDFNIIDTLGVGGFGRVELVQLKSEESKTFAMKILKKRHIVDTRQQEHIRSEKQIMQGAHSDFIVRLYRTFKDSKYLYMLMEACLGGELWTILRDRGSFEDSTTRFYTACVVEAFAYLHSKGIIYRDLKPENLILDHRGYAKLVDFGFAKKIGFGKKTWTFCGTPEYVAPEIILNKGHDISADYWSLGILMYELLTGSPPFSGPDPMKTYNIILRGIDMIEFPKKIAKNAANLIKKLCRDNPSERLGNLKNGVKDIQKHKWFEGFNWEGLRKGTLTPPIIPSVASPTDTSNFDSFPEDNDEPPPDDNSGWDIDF
Briefly: Inhibition of PKG-alpha (unknown origin) at 0.078 uM relative to control.

Experiment [29] deals with Ribosomal protein S6 kinase alpha-1 (Homo sapiens) (UniProt Q15418). Briefly: Inhibition of RSK1 (unknown origin) at 0.078 uM relative to control.
For experiment [30], the target named is Glycogen synthase kinase-3 beta (Homo sapiens) (UniProt P49841). Briefly: Inhibition of GSK3b (unknown origin) at 0.078 uM relative to control.

One may read the inhibition as the relative decrease from the control value, in per cent.

Take `Cc1[nH]nc(C2CC2)c1-c1ccc2c(NC(=O)C3CC3)noc2c1`: the inhibition in [1] is 2.3%; in experiment [2] it was 3.3%; in experiment [3] it was 20%; in experiment [4], -6.7%; in experiment [5], 2.3%; in experiment [6], 3.3%. The inhibition in [7] is -2.7%; in experiment [8] it was 1.3%; in experiment [9] it was 1.3%; in [10], 9%; in experiment [11], -3%; in experiment [12], 0.3%. The inhibition in experiment [13] came out at 7.7%; in experiment [14] it was 5.3%.

On to `Cc1n[nH]c(C)c1-c1ccc2c(NC(=O)c3ccc(N4CCN(C)CC4)cc3)n[nH]c2c1`, for which the inhibition in experiment [15] was 1.3%; in experiment [16], -3.3%; in experiment [17], 0.7%; in experiment [18] it was 2.3%; in experiment [19], 42.7%; in [20], 3.7%. Also, the inhibition in experiment [21] is 1.7%; in experiment [22], 83.7%; in experiment [23], -7%; in [24], 79.3%; in [25] it was -2%; in experiment [26], 84%. Moreover, the inhibition in experiment [27] turned out to be 66%.

Regarding `COC(=O)Nc1noc2cc(-c3c(-c4ccccn4)n[nH]c3C)ccc12`, the inhibition in [28] is -3.3%; in experiment [29], 0.3%; in experiment [30] it was 10%.

For the origin of these results see ChEMBL document CHEMBL4052759, “Discovery of DS79182026: A potent orally active hepcidin production inhibitor” (Bioorg Med Chem Lett, 2017).
